Results published in ChEMBL document CHEMBL5214916, “Enzyme inhibition as a potential therapeutic strategy to treat COVID-19 infection” (Bioorg Med Chem, 2021).

What was measured:
[1] = target: Transmembrane protease serine 2 (Homo sapiens, UniProt O15393); test: Inhibition of TMPRSS2 (unknown origin) expressed in Escherichia coli BL21 (DE3) using H-D cyclohexylalanine-Pro-Arg-AM as substrate by Dixon method
[2] = system: Calu-3; test: Cytotoxicity against human Calu-3 cells assessed as decrease in viability at 50 uM incubated for 48 hrs by MTT assay; assay type: toxicity, cell-based; conditions: calu-3, 48 h
[3] = target: T1, Angiotensin-converting enzyme 2 (Homo sapiens, UniProt Q9BYF1); test: Inhibition of recombinant human ACE2 using 7-Mca-YVADAPK (Dnp) as substrate by fluorescence plate reader assay
Target sequence in this assay (Q9BYF1 whole entry): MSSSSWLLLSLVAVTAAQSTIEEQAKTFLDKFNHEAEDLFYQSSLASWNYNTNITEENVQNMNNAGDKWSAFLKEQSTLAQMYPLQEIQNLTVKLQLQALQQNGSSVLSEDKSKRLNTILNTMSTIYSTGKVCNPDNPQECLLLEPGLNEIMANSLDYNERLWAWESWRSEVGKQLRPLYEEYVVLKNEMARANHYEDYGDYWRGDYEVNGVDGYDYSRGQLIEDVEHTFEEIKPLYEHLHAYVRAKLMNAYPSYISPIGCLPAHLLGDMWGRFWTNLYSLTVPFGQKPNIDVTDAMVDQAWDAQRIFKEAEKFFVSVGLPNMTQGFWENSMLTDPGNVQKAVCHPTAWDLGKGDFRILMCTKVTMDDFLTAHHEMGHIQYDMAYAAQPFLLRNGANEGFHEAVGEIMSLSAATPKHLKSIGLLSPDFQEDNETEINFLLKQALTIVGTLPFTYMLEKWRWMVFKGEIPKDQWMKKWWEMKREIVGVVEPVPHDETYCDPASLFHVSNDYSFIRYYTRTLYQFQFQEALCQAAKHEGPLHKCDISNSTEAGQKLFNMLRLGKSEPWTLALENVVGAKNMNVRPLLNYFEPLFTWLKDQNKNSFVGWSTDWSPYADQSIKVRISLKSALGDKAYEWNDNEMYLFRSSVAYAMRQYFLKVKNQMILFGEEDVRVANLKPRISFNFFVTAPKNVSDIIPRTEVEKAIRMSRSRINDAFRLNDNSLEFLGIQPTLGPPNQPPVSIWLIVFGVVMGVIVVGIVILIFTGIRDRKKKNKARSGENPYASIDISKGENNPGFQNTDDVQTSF

[4] = target: T1, Angiotensin-converting enzyme 2; test: Inhibition of ACE2 in human MNCs assessed as maximum inhibition using 7- Mca-YVADAPK (Dnp) as substrate by fluorescence plate reader assay relative to control; assay type: cell-based; conditions: Mononuclear cell line
Target sequence in this assay (Q9BYF1 18-805 limits assumed): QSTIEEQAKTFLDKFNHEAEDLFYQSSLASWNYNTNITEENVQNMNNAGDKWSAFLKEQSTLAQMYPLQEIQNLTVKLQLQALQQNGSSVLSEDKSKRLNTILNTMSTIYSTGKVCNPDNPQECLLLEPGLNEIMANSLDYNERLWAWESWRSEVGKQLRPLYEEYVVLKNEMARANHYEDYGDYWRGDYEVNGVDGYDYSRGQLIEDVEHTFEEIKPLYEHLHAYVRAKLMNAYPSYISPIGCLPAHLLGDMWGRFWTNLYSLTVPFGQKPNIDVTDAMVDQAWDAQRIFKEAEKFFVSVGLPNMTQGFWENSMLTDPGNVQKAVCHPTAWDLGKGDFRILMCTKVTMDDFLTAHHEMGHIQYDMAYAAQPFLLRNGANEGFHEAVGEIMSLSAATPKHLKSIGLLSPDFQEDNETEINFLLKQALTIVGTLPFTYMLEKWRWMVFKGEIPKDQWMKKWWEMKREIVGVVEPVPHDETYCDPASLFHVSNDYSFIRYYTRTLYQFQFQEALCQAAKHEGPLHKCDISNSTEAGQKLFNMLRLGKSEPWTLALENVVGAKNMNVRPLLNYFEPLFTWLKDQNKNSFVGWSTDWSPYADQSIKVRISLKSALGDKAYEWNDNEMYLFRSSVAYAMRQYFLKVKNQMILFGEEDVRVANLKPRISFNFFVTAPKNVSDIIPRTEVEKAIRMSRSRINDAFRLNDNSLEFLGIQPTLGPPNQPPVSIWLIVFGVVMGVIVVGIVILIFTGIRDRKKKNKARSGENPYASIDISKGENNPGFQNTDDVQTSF

[5] = target: T2, Angiotensin-converting enzyme (Homo sapiens, UniProt P12821); test: Inhibition of recombinant human ACE assessed as maximum inhibition using Mca-RPGFSAFK (Dnp)-OH as substrate by fluorescence plate reader assay relative to control
[6] = target: T1, Angiotensin-converting enzyme 2; test: Inhibition of recombinant human ACE2 assessed as maximum inhibition using 7- Mca-YVADAPK (Dnp) as substrate by fluorescence plate reader assay relative to control
Target sequence in this assay (Q9BYF1 18-805 limits assumed): as above

[7] = target: T2, Angiotensin-converting enzyme; test: Inhibition of ACE in human MNCs assessed as maximum inhibition using substrate Mca-RPGFSAFK (Dnp)-OH as substrate by fluorescence plate reader assay relative to control; assay type: cell-based; conditions: Mononuclear cell line
[8] = target: T2, Angiotensin-converting enzyme; test: Inhibition of recombinant human ACE using Mca-RPGFSAFK (Dnp)- OH as substrate by fluorescence plate reader assay
[9] = system: Influenza A virus; test: Antiviral activity against human pandemic influenza virus A/Aichi/2/68 (H3N2) infected in human Calu-3 cells assessed as fold decrease in viral titre at 50 uM incubated for 24 hrs by plaque assay; assay type: functional
[10] = system: Influenza A virus; test: Antiviral activity against human pandemic influenza virus A/Hamburg/5/09 (H1N1) infected in human Calu-3 cells assessed as fold decrease in viral titre at 50 uM incubated for 24 hrs by plaque assay; assay type: functional
[11] = system: Influenza A virus; test: Antiviral activity against human pandemic influenza virus A/Hamburg/5/09 (H1N1) infected in human Calu-3 cells assessed as fold decrease in viral titre at 10 uM incubated for 24 hrs by plaque assay; assay type: functional
[12] = system: Influenza A virus; test: Antiviral activity against human pandemic influenza virus A/Aichi/2/68 (H3N2) infected in human Calu-3 cells assessed as fold decrease in viral titre at 10 uM incubated for 24 hrs by plaque assay; assay type: functional

T2 sequence (P12821 whole entry): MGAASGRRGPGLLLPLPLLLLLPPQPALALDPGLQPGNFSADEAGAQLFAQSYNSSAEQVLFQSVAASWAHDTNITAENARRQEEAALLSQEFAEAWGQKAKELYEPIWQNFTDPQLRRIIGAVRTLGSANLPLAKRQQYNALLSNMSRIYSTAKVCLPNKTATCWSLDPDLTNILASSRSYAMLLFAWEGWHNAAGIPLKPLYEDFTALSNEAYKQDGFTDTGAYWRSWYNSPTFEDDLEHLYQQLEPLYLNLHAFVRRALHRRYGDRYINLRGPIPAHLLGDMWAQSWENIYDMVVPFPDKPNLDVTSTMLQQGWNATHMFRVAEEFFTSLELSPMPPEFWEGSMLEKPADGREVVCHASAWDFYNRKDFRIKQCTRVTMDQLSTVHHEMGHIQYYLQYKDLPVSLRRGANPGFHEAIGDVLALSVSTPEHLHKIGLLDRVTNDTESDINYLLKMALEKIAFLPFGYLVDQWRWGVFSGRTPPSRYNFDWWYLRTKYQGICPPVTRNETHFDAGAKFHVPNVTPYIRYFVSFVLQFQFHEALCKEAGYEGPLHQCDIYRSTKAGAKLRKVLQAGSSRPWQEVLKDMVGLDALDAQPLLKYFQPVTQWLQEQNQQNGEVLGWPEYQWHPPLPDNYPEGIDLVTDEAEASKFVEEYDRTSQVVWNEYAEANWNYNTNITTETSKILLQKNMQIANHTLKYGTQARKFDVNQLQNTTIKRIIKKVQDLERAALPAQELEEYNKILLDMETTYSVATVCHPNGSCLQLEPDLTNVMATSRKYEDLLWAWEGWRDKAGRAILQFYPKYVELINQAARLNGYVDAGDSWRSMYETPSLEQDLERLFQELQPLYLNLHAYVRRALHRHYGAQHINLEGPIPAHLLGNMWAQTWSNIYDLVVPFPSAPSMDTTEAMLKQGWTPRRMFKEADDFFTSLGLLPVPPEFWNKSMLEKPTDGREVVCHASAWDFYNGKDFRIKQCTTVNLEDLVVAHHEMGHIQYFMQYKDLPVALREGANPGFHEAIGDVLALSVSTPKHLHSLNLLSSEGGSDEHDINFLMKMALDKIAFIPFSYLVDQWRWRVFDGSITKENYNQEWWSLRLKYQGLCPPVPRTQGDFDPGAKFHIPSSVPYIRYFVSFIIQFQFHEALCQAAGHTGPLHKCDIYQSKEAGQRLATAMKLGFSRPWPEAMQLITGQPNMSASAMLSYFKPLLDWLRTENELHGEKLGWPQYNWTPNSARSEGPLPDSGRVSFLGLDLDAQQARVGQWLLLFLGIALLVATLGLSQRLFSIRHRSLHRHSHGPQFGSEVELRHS
Chain of Transmembrane protease serine 2 (O15393 1-255 limits assumed): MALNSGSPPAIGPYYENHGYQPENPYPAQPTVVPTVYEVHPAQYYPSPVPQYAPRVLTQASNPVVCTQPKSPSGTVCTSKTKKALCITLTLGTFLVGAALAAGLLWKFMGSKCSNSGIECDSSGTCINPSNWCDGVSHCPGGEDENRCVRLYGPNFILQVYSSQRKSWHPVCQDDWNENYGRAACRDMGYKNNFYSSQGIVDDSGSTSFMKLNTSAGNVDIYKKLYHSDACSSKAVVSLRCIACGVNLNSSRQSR
Chain of Transmembrane protease serine 2 (O15393 256-492 limits assumed): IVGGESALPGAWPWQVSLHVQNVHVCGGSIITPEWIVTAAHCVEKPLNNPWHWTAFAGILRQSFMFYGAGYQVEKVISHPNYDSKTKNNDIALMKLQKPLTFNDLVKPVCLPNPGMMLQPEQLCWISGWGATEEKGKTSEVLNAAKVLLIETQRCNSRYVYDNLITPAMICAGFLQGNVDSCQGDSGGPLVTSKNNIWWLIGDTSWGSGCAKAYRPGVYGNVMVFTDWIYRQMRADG

**Q.** How did the Ki [1] turn out when `CNC(=O)NCCC1CCN(C(=O)[C@H](Cc2cccc(C(=N)N)c2)NS(=O)(=O)c2cccc(-c3ccc(Cl)cc3Cl)c2)CC1` was run?
**A.** 3 nM

**Q.** With `CNC(=O)CCCC1CCN(C(=O)[C@H](Cc2cccc(C(=N)N)c2)NS(=O)(=O)c2cccc(-c3ccc(Cl)cc3Cl)c2)CC1` as the compound, how does the Activity [2] read?
**A.** 20%

**Q.** Which results are given for `CC(C)C[C@H](N[C@@H](Cc1cncn1Cc1cc(Cl)cc(Cl)c1)C(=O)O)C(=O)O` [ORE-1001]?
**A.** pIC50 [3]: 8.01; Imax [4]: 63%; Imax [5]: 46%; Imax [6]: 80%; Imax [7]: 34%; pIC50 [8]: 5

**Q.** What does the source list for `CC(C)CC(N[C@@H](Cc1cncn1Cc1cc(Cl)cc(Cl)c1)C(=O)O)C(=O)O` (mixture of isomers)?
**A.** IC50 [3]: 3.16 nM; Imax [4]: 34%; Imax [5]: 48%; Imax [6]: 94%; Imax [7]: 22%; IC50 [8]: 39800 nM

**Q.** For `N=C(N)c1cccc(C[C@H](NS(=O)(=O)c2cccc(-c3ccc(Cl)cc3Cl)c2)C(=O)N2CCC(CCN)CC2)c1`, which Ki [1] is on record?
**A.** 0.9 nM

**Q.** And the “fold change (FC)” value [9]?
**A.** 100

**Q.** What about the “fold change (FC)” value [10] of the same compound?
**A.** 100

**Q.** And the “fold change (FC)” value [11]?
**A.** 10

**Q.** What about the “fold change (FC)” value [12] of the same compound?
**A.** 100

**Q.** With `N=C(N)c1cccc(C[C@H](NS(=O)(=O)c2cccc(-c3ccc(Cl)cc3Cl)c2)C(=O)N2CCC(NC(=O)NC3CCCCC3)CC2)c1` as the compound, how does the Ki [1] read?
**A.** 3 nM

**Q.** How did the IC50 [3] turn out when `CC(C)C[C@@H](N[C@@H](Cc1cncn1Cc1cc(Cl)cc(Cl)c1)C(=O)O)C(=O)O` was run?
**A.** 1.26 nM

**Q.** What about the Imax [4] of the same compound?
**A.** 35%

**Q.** What about the Imax [5] of the same compound?
**A.** 49%

**Q.** And the Imax [6]?
**A.** 93%

**Q.** What about the Imax [7] of the same compound?
**A.** 20%

**Q.** And the IC50 [8]?
**A.** 39800 nM

**Q.** Which Ki [1] does the source give for `COc1ccc(-c2cccc(S(=O)(=O)N[C@@H](Cc3cccc(C(=N)N)c3)C(=O)N3CCC(NC(=O)NC4CCCCC4)CC3)c2)c(OC)c1` here?
**A.** 3 nM

**Q.** And the Activity [2]?
**A.** 20%

**Q.** `COc1ccc(-c2cccc(S(=O)(=O)N[C@@H](Cc3cccc(C(=N)N)c3)C(=O)N3CCC(CCN)CC3)c2)c(OC)c1` was tested. Which Ki [1] did it give?
**A.** 1 nM

**Q.** How did the Ki [1] turn out when `CNC(=O)NCCC1CCN(C(=O)[C@H](Cc2cccc(C(=N)N)c2)NS(=O)(=O)c2cccc(-c3ccc(OC)cc3OC)c2)CC1` was run?
**A.** 3 nM
